From patent US20090060984A1, “ANIONIC SURFACTANTS LETHAL TO GRAM-POSITIVE BACTERIA” (priority 2007, published 2009)
Values joined by “and” are separate entries in the source; they are usually repeats but may differ in a detail not shown here. Identical values can stand only once. Like-named read-outs stand apart in the source and are kept apart here.

What was measured:
Enterococcus fecalis = assay: Growth on surfactant/TSA agar plates; assay type: cell-based
Streptococcus agalactiae = assay: Growth on surfactant/TSA agar plates; assay type: cell-based; conditions: Streptococcus agalactiae strain EM13
Micrococcus luteus = assay: Growth on surfactant/TSA agar plates; assay type: cell-based; conditions: Micrococcus luteus strain EM17
Streptococcus bovis = assay: Growth on surfactant/TSA agar plates; assay type: cell-based; conditions: Streptococcus bovis strain EM12
Bacillus subtilis = assay: Growth on surfactant/TSA agar plates; assay type: cell-based
Streptococcus viridans = assay: Growth on surfactant/TSA agar plates; assay type: cell-based; conditions: Streptococcus viridans strain EM8
[1] = system: Staphylococcus epidermidis; assay: Growth on surfactant/TSA agar plates; assay type: cell-based; conditions: Staphylococcus epidermidis strain EM3/ATCC12228
Staphylococcus aureus = assay: Growth on surfactant/TSA agar plates; assay type: cell-based
Streptococcus pyogenes = assay: Growth on surfactant/TSA agar plates; assay type: cell-based; conditions: Streptococcus pyogenes strain EM14
B. subtilis = assay: Sodium surfactant polyurethane coated microscope slides, surviving bacteria; conditions: for CFU/mL B. subtilis: 30% sodium surfactant polyurethane coated microscope slides, two data sets
Serratia marcescens = assay: Growth on surfactant/TSA agar plates; assay type: cell-based; conditions: the one Gram-negative not resistant
Description: This solution was then aliquoted into sterile petri dishes, approximately 25 mL per plate, and allowed to solidify. The organisms were grown in 5 mL of Trypticase Soy Broth. The sterile broth was inoculated with a single isolated colony from a stock culture and allowed to incubate in a shaking water bath at 37° C. for 8-10 hours. The estimated concentration was about 10^9 CFU/mL. Some plates were tested with a 1:100 dilution of these cultures to arrive at an approximate concentration of 10^7 CFU/mL. Then, 10 μL of each overnight culture was pipetted directly onto the surface of the surfactant/TSA plates, which were then allowed to incubate at 37° C. for 24 hours. Results were based on the presence or absence of bacterial growth on the surface of the agar.

S. aureus [2] = assay: Sodium surfactant polyurethane coated microscope slides, surviving bacteria; conditions: for CFU/mL S. aureus: 30% sodium surfactant polyurethane coated microscope slides, two data sets
E. coli = assay type: cell-based, Escherichia coli; conditions: 24 h contact time
Description: Escherichia coli ATCC 11229 (Culti-loops, Remel Europe, Dartford, Kent, UK) and Pseudomonas aeruginosa ATCC 15442 (Cuti-loops, Remel Europe, Dartford, Kent, UK) were selected as model Gram-negative organisms for the challenge testing of the antimicrobial coatings. Each bacterial strain was streaked for isolated colonies on Tryptic Soy Agar (TSA) plates (Difco, Becton Dickinson, Sparks, Md., U.S.A.) and incubated at 37° C. for 12 to 18 hours. Broth cultures were prepared by first picking 1-2 isolated colonies from TSA plates and inoculating 5 mL Tryptic Soy Broth (TSB; Difco, Becton Dickinson, Sparks, Md., U.S.A.) in a 16 mm test tube. This culture was grown in a shaking water bath at 150 RPM for 8 hours at 37° C. After the eight hours, 125 μL of this culture was added to 50 mL of TSB in a side-arm Klett flask and grown for approximately 8 hours in shaking water bath (150 RPM) at 37° C. The bacterial broths were grown to an A590 of 1.2-1.5, which correlated to approximately 10^9 CFU (colony forming units)/mL. 25 mL of this broth were transferred to a sterile 30 mL Oakridge tube and centrifuged at 12,000×g for 10 minutes at 4° C. (Sorval SS34 rotor) to pelletize the bacteria. The bacterial pellet was washed once and resuspended in 25 mL of phosphate buffer solution (PBS; BBL, FTA Hemaglutination Buffer, Becton Dickinson, Sparks, Md., U.S.A.). The suspension was diluted with PBS to achieve the target range of 10^5-10^6 CFU/mL and used to inoculate the slides containing antibacterial coatings.
Xylene/methanol (5:1 by weight) is used to dissolve the silver surfactants to facilitate homogeneously mixing with the alkyd resin composition.
A minus sign (−) denotes no growth, a plus sign (+) denotes confluent growth, and a capital P (P) denotes […].
Xylene/methanol (5:1 by weight) is used to dissolve the silver surfactants to facilitate homogeneously mixing with the acrylic resin composition.
The same laboratory experimental solvent based acrylic paint described in Example 34 is used to challenge E. coli by adding various levels of the invention silver anionic surfactants as described in Example 34.
A commercially available 2K epoxy resin paint is obtained from a local paint store (Sherwin Williams High Solids Epoxy Tile Clad HS; Part A B62WC11; Part B B60VZ75, The Sherwin Williams Company) and the same silver anionic surfactants described in Example 35 are used to prepare test coatings on microscope slides containing various levels of silver ion. These surfactants are dissolved in xylene/methanol (5:1 by weight) to facilitate their quantitative addition to the coating mixture.

S. aureus [3] = assay type: cell-based, Staphylococcus aureus; conditions: laboratory acrylic clearcoat, 24 h contact time
Description: A laboratory experimental solvent based acrylic paint is formulated and then used to challenge S. aureus by adding various levels of the invention silver anionic surfactants as described in Example 33. A binder is made by solution polymerization of butyl acrylate (25% w/w), methylmethacrylate (73.5% w/w), and methacrylic acid (1.5% w/w) in amylacetate using thermal initiation. This solution polymer is then used to make a 60% solids clearcoat binder in xylene/methanol (5:1 by weight). The silver anionic surfactants are dissolved in this same xylene/methanol mixture prior to addition to the clearcoat.

[4] = Enterococcus fecalis strain EM19 (first listing)
[5] = Enterococcus fecalis strain EM19 (second listing)
[6] = Bacillus subtilis strain ATCC33
[7] = Staphylococcus aureus strain ATCC6538
[8] = Staphylococcus aureus strain EM24/ATCC25923
[9] = after 12 and 24 hours of exposure, polyurethane coated slides

O=C(CC(C(=O)OC1CCCCC1)S(=O)(=O)[O-])OC1CCCCC1.[Na+] (stereo not shown) [Compound S5]
+: No Growth(−)/Full Growth(+), replicate columns (Enterococcus fecalis; [4]) | No Growth(−)/Full Growth(+), replicate columns (Enterococcus fecalis; [5]) | No Growth(−)/Full Growth(+), replicate columns (Streptococcus viridans) | No Growth(−)/Full Growth(+), replicate columns [1] | No Growth(−)/Full Growth(+), replicate columns (Staphylococcus aureus; [7]) | No Growth(−)/Full Growth(+), replicate columns (Staphylococcus aureus; [8])
− and +: No Growth(−)/Full Growth(+), replicate columns (Bacillus subtilis; Bacillus subtilis strain EM27)
−: No Growth(−)/Full Growth(+), replicate columns (Streptococcus bovis) | No Growth(−)/Full Growth(+), replicate columns (Bacillus subtilis; [6]) | No Growth(−)/Full Growth(+), replicate columns (Streptococcus pyogenes)
+ and − (2×): No Growth(−)/Full Growth(+), replicate columns (Micrococcus luteus)
− (2×) and +: No Growth(−)/Full Growth(+), replicate columns (Streptococcus agalactiae)

CCCCCCCCCCCCCOC(=O)CC(C(=O)OCCCCCCCCCCCCC)S(=O)(=O)[O-].[Na+] (stereo not shown) [Compound S6]
− (2×) and +: No Growth(−)/Full Growth(+), replicate columns (Streptococcus agalactiae) | No Growth(−)/Full Growth(+), replicate columns (Bacillus subtilis; Bacillus subtilis strain EM27)
−: No Growth(−)/Full Growth(+), replicate columns (Streptococcus bovis) | No Growth(−)/Full Growth(+), replicate columns (Streptococcus pyogenes)
+ (2×) and −: No Growth(−)/Full Growth(+), replicate columns (Bacillus subtilis; [6])
+: No Growth(−)/Full Growth(+), replicate columns (Enterococcus fecalis; [4]) | No Growth(−)/Full Growth(+), replicate columns (Enterococcus fecalis; [5]) | No Growth(−)/Full Growth(+), replicate columns (Micrococcus luteus) | No Growth(−)/Full Growth(+), replicate columns (Streptococcus viridans) | No Growth(−)/Full Growth(+), replicate columns [1] | No Growth(−)/Full Growth(+), replicate columns (Staphylococcus aureus; [7]) | No Growth(−)/Full Growth(+), replicate columns (Staphylococcus aureus; [8])

CCCCC(CC)COC(=O)CC(C(=O)OCC(CC)CCCC)S(=O)(=O)[O-].[Na+] (stereo not shown) [NaAOT, Sodium bis(2-ethylhexyl)sulfosuccinate]
killed all: Killing of B. subtilis (B. subtilis; [9]) | Killing of S. aureus (S. aureus [2]; [9])
0 CFU/mL: CFU/mL B. subtilis (B. subtilis; exposure 12 hours) | CFU/mL B. subtilis (B. subtilis; exposure 24 hours) | CFU/mL S. aureus (S. aureus [2]; exposure 12 hours) | CFU/mL S. aureus (S. aureus [2]; exposure 24 hours)
except for Serratia marcescens: Effect on Serratia marcescens (Serratia marcescens)

silver linearalkanebenzene sulfonate [AgLABS]
0.03 % Ag w/w: Silver level partially effective (E. coli; commercial solvent borne acrylic paint)
0.03 % w/w: Silver level giving complete inhibition of growth (E. coli; commercial 2K epoxy paint)
−: E. coli growth on coating (E. coli; alkyd resin paint, 0.03 weight % Ag in coating) | E. coli growth on coating (E. coli; alkyd resin paint, 0.06 weight % Ag in coating) | E. coli growth on coating (E. coli; alkyd resin paint, 0.12 weight % Ag in coating) | E. coli growth on coating (E. coli; commercial 2K epoxy paint, 0.03 weight % Ag in coating) | E. coli growth on coating (E. coli; commercial 2K epoxy paint, 0.06 weight % Ag in coating) | E. coli growth on coating (E. coli; commercial 2K epoxy paint, 0.12 weight % Ag in coating) | E. coli growth on coating (E. coli; commercial solvent borne acrylate paint, 0.06 weight % Ag in coating) | E. coli growth on coating (E. coli; commercial solvent borne acrylate paint, 0.12 weight % Ag in coating) | E. coli growth on coating (E. coli; laboratory solvent borne acrylate paint, 0.06 weight % Ag in coating) | E. coli growth on coating (E. coli; laboratory solvent borne acrylate paint, 0.12 weight % Ag in coating)
0.012 % Ag w/w and 0.006 % Ag w/w: Silver level with partial growth (S. aureus [3])
+: E. coli growth on coating (E. coli; alkyd resin paint, 0.0012 weight % Ag in coating) | E. coli growth on coating (E. coli; alkyd resin paint, 0.003 weight % Ag in coating) | E. coli growth on coating (E. coli; alkyd resin paint, 0.006 weight % Ag in coating) | E. coli growth on coating (E. coli; alkyd resin paint, 0.012 weight % Ag in coating) | E. coli growth on coating (E. coli; commercial 2K epoxy paint, 0.0012 weight % Ag in coating) | E. coli growth on coating (E. coli; commercial 2K epoxy paint, 0.003 weight % Ag in coating) | E. coli growth on coating (E. coli; commercial 2K epoxy paint, 0.006 weight % Ag in coating) | E. coli growth on coating (E. coli; commercial 2K epoxy paint, 0.012 weight % Ag in coating) | E. coli growth on coating (E. coli; commercial solvent borne acrylate paint, 0.0012 weight % Ag in coating) | E. coli growth on coating (E. coli; commercial solvent borne acrylate paint, 0.003 weight % Ag in coating) | E. coli growth on coating (E. coli; commercial solvent borne acrylate paint, 0.006 weight % Ag in coating) | E. coli growth on coating (E. coli; commercial solvent borne acrylate paint, 0.012 weight % Ag in coating) | E. coli growth on coating (E. coli; laboratory solvent borne acrylate paint, 0.0012 weight % Ag in coating) | E. coli growth on coating (E. coli; laboratory solvent borne acrylate paint, 0.003 weight % Ag in coating) | E. coli growth on coating (E. coli; laboratory solvent borne acrylate paint, 0.006 weight % Ag in coating) | E. coli growth on coating (E. coli; laboratory solvent borne acrylate paint, 0.012 weight % Ag in coating)
0.03%: Silver level with partial inhibition (E. coli; laboratory solvent based acrylic paint)
